Where “and” joins values, the source holds several entries; their conditions need not be identical. Equal entries are not always repeated. Toxic doses and inconclusive results are not listed. Rule as the data show it: active = T/C of 150% or more; inactive = T/C below 125%.
Tested on: L1210 leukemia ip in BDF1 mice, survival T/C
Test: NCI In Vivo Anticancer Drug Screen. Data for tumor model L1210 Leukemia (intraperitoneal) in B6D2F1 (BDF1) mice
Settings: endpoint: mean survival time, higher = longer survival
Procedure, shortened: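 Survival endpoint. Drug-treated group vs vehicle group, expressed as T divided by C. Tumor passaged by transplantation.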

[1] = dose: 100.0 mg/kg/injection, schedule: Q01DX009 (ip), vehicle: Klucel (hydroxypropylcellulose) (HPC)
[2] = dose: 200.0 mg/kg/injection, schedule: Q01DX009 (ip), vehicle: Klucel (hydroxypropylcellulose) (HPC)
[3] = dose: 400.0 mg/kg/injection, schedule: Q01DX009 (ip), vehicle: Klucel (hydroxypropylcellulose) (HPC)
[4] = dose: 100.0 mg/kg/injection, schedule: Q04DX003 (ip), vehicle: saline
[5] = dose: 400.0 mg/kg/injection, schedule: Q04DX003 (ip), vehicle: saline
[6] = dose: 100.0 mg/kg/injection, schedule: Q04DX003 (ip), vehicle: Klucel (hydroxypropylcellulose) (HPC)
[7] = dose: 200.0 mg/kg/injection, schedule: Q04DX003 (ip), vehicle: Klucel (hydroxypropylcellulose) (HPC)
[8] = dose: 400.0 mg/kg/injection, schedule: Q04DX003 (ip), vehicle: Klucel (hydroxypropylcellulose) (HPC)
[9] = dose: 100.0 mg/kg/injection, schedule: Q04DX002 (ip), vehicle: saline
[10] = dose: 200.0 mg/kg/injection, schedule: Q04DX002 (ip), vehicle: saline
[11] = dose: 400.0 mg/kg/injection, schedule: Q04DX002 (ip), vehicle: saline
[12] = dose: 200.0 mg/kg/injection, schedule: Q01DX001 (ip), vehicle: carboxymethylcellulose (CMC)
[13] = dose: 100.0 mg/kg/injection, schedule: Q04DX002 (ip), vehicle: Klucel (hydroxypropylcellulose) (HPC)
[14] = dose: 100.0 mg/kg/injection, schedule: Q04DX003 (ip), vehicle: saline with Tween-80
[15] = dose: 200.0 mg/kg/injection, schedule: Q04DX003 (ip), vehicle: saline with Tween-80
[16] = dose: 400.0 mg/kg/injection, schedule: Q04DX003 (ip), vehicle: saline with Tween-80
[17] = dose: 100.0 mg/kg/injection, schedule: Q01DX009 (ip), vehicle: saline with Tween-80
[18] = dose: 200.0 mg/kg/injection, schedule: Q01DX009 (ip), vehicle: saline with Tween-80
[19] = dose: 100.0 mg/kg/injection, schedule: Q01DX001 (ip), vehicle: saline
[20] = dose: 200.0 mg/kg/injection, schedule: Q01DX001 (ip), vehicle: saline
[21] = dose: 400.0 mg/kg/injection, schedule: Q01DX001 (ip), vehicle: saline

Measured: T/C

Cc1nc2c(ncn2C2OC(CO)C(O)C2O)c(=O)[nH]1 (stereo not given)
inactive: dose: 100.0 mg/kg/injection, schedule: Q01DX005 (ip), vehicle: saline 103 % of control | dose: 200.0 mg/kg/injection, schedule: Q01DX005 (ip), vehicle: saline 93 % of control

CCOC(=O)C(Oc1ccc([N+](=O)[O-])cc1)C(=O)OCC
inactive: [1] 98 % of control | [2] 98 % of control | [3] 96 % of control

NC(=O)CC(N)c1nn[nH]n1 (stereo not given)
inactive: dose: 100.0 mg/kg/injection, schedule: Q01DX009 (ip), vehicle: saline 89 % of control | [4] 97 % of control | dose: 200.0 mg/kg/injection, schedule: Q01DX009 (ip), vehicle: saline 98 % of control | dose: 200.0 mg/kg/injection, schedule: Q04DX003 (ip), vehicle: saline 100 % of control | dose: 400.0 mg/kg/injection, schedule: Q01DX009 (ip), vehicle: saline 102 % of control | [5] 103 % of control

O=C(O)C1C2CCC3C(C(=O)O)C3C21 (stereo not given)
inactive: [1] 100 % of control | [6] 97 % of control | [2] 97 % of control | [7] 101 % of control | [3] 92 % of control | [8] 98 % of control

CCOC(=O)N(C(=S)Nc1ccccc1)c1nc(C)cs1
inactive: dose: 100.0 mg/kg/injection, schedule: Q01DX001 (ip), vehicle: gum acacia 100 % of control | dose: 200.0 mg/kg/injection, schedule: Q01DX001 (ip), vehicle: gum acacia 111 % of control | dose: 400.0 mg/kg/injection, schedule: Q01DX001 (ip), vehicle: gum acacia 97 % of control

CC(=O)Nc1ccc(C(=O)CCl)cc1
inactive: dose: 25.0 mg/kg/injection, schedule: Q01DX009 (ip), vehicle: Klucel (hydroxypropylcellulose) (HPC) 95 % of control | dose: 25.0 mg/kg/injection, schedule: Q04DX003 (ip), vehicle: Klucel (hydroxypropylcellulose) (HPC) 93 % of control and 101 % of control | dose: 50.0 mg/kg/injection, schedule: Q01DX001 (ip), vehicle: carboxymethylcellulose (CMC) 101 % of control | dose: 50.0 mg/kg/injection, schedule: Q01DX009 (ip), vehicle: Klucel (hydroxypropylcellulose) (HPC) 88 % of control | dose: 50.0 mg/kg/injection, schedule: Q04DX003 (ip), vehicle: Klucel (hydroxypropylcellulose) (HPC) 105 % of control | [6] 110 % of control

CN(C)c1ccc(/C=N/O)cc1
inactive: [9] 103 % of control | [10] 95 % of control | [11] 95 % of control

C/C=C\c1ccc(OC(=O)Nc2ccc(C(=O)OCC)cc2)c(OC)c1
inactive: [1] 94 % of control | [2] 94 % of control | [3] 89 % of control

CC1=C(O)C(=O)C(c2c(C)cc(C)c(Br)c2C)=C(O)C1=O
inactive: dose: 75.0 mg/kg/injection, schedule: Q01DX009 (ip), vehicle: Klucel (hydroxypropylcellulose) (HPC) 117 % of control

CCOc1c(Br)cc(N=Cc2ccc(N(CCCl)CCCl)c(OC)c2)cc1Br
inactive: dose: 44.0 mg/kg/injection, schedule: Q01DX001 (ip), vehicle: carboxymethylcellulose (CMC) 120 % of control | dose: 150.0 mg/kg/injection, schedule: Q01DX001 (ip), vehicle: carboxymethylcellulose (CMC) 123 % of control | [12] 104 % of control

O=C(NOC(=O)c1ccccc1)c1ccccc1
inactive: dose: 25.0 mg/kg/injection, schedule: Q04DX002 (ip), vehicle: Klucel (hydroxypropylcellulose) (HPC) 97 % of control | dose: 50.0 mg/kg/injection, schedule: Q04DX002 (ip), vehicle: Klucel (hydroxypropylcellulose) (HPC) 97 % of control | [13] 97 % of control | [14] 103 % of control | [15] 91 % of control | [16] 101 % of control

O=C(Nc1ccc(Cl)cc1)C(=O)Nc1ccc(Cl)cc1
inactive: dose: 100.0 mg/kg/injection, schedule: Q04DX002 (ip), vehicle: gum acacia 107 % of control | dose: 200.0 mg/kg/injection, schedule: Q04DX002 (ip), vehicle: gum acacia 89 % of control | dose: 400.0 mg/kg/injection, schedule: Q04DX002 (ip), vehicle: gum acacia 93 % of control

CCCCCCCCCCCCCCCCCCCCC(C(=O)O)S(=O)(=O)O (stereo not given)
inactive: [4] 95 % of control | [5] 96 % of control

CCCCCCC(=O)N1C(C)CCCC1C (stereo not given)
inactive: [9] 107 % of control | [10] 103 % of control | [11] 92 % of control

Cc1ccc([I+]c2ccc(C)c(C)c2C)c(C)c1C
inactive: dose: 2.5 mg/kg/injection, schedule: Q01DX001 (ip), vehicle: acetone 100 % of control | dose: 5.0 mg/kg/injection, schedule: Q01DX001 (ip), vehicle: acetone 102 % of control | dose: 10.0 mg/kg/injection, schedule: Q01DX001 (ip), vehicle: acetone 96 % of control | dose: 22.0 mg/kg/injection, schedule: Q01DX001 (ip), vehicle: acetone 103 % of control

NNC(=O)Cc1nc2ccccc2[nH]c1=O
inactive: [1] 102 % of control | [6] 106 % of control | [2] 96 % of control | [7] 95 % of control | [8] 98 % of control

CC(C)(C)Sc1cccnc1
inactive: [17] 94 % of control | [18] 98 % of control

CCN(CC)C(=O)Nc1ccc(C(=O)O)c(O)c1
inactive: [6] 95 % of control | [7] 90 % of control | [8] 90 % of control

Cc1c(Cl)cccc1NC(=O)Oc1ccc(Cl)cc1
inactive: [17] 92 % of control | [14] 93 % of control | [18] 87 % of control | [15] 97 % of control | dose: 400.0 mg/kg/injection, schedule: Q01DX009 (ip), vehicle: saline with Tween-80 87 % of control | [16] 102 % of control

O=S(c1ccccc1)C1CCCCC1O (stereo not given)
inactive: dose: 100.0 mg/kg/injection, schedule: Q04DX002 (ip), vehicle: saline with Tween-80 108 % of control | dose: 200.0 mg/kg/injection, schedule: Q04DX002 (ip), vehicle: saline with Tween-80 118 % of control

CCCC(CCC)(C(N)=O)c1ccc(OC)cc1
inactive: dose: 100.0 mg/kg/injection, schedule: Q01DX001 (ip), vehicle: carboxymethylcellulose (CMC) 87 % of control | [12] 98 % of control | dose: 400.0 mg/kg/injection, schedule: Q01DX001 (ip), vehicle: carboxymethylcellulose (CMC) 93 % of control

CCCCN=C=NCCCN(C)C
inactive: dose: 62.5 mg/kg/injection, schedule: Q04DX003 (ip), vehicle: Klucel (hydroxypropylcellulose) (HPC) 103 % of control | dose: 125.0 mg/kg/injection, schedule: Q04DX003 (ip), vehicle: Klucel (hydroxypropylcellulose) (HPC) 96 % of control | dose: 250.0 mg/kg/injection, schedule: Q04DX003 (ip), vehicle: Klucel (hydroxypropylcellulose) (HPC) 92 % of control

CSc1ccc(C2NC(=O)NC2=O)cc1 (stereo not given)
inactive: dose: 50.0 mg/kg/injection, schedule: Q01DX001 (ip), vehicle: saline 102 % of control | [19] 100 % of control | [20] 96 % of control | [21] 102 % of control

OC1COC(n2cnc3c(=S)nc[nH]c32)CC1O (stereo not given)
inactive: dose: 5.0 mg/kg/injection, schedule: Q01DX001 (ip), vehicle: saline 100 % of control | dose: 10.0 mg/kg/injection, schedule: Q01DX001 (ip), vehicle: saline 103 % of control | dose: 20.0 mg/kg/injection, schedule: Q01DX001 (ip), vehicle: saline 100 % of control | dose: 40.0 mg/kg/injection, schedule: Q01DX001 (ip), vehicle: saline 95 % of control | [19] 107 % of control | [20] 108 % of control | [21] 124 % of control

CN(C)C(=O)O/N=C(\c1ccccc1)C(F)(F)F
inactive: dose: 0.5 mg/kg/injection, schedule: Q01DX001 (ip), vehicle: saline 103 % of control | dose: 1.0 mg/kg/injection, schedule: Q01DX001 (ip), vehicle: saline 102 % of control | dose: 2.0 mg/kg/injection, schedule: Q01DX001 (ip), vehicle: saline 97 % of control

CCN(CC)Cc1ccccc1COC(=O)c1ccc(Cl)cc1
inactive: [13] 96 % of control | dose: 200.0 mg/kg/injection, schedule: Q04DX002 (ip), vehicle: Klucel (hydroxypropylcellulose) (HPC) 101 % of control | dose: 400.0 mg/kg/injection, schedule: Q04DX002 (ip), vehicle: Klucel (hydroxypropylcellulose) (HPC) 88 % of control
